Source: patent US8592611B2, “Trioxane dimer sulfur compounds” (The Johns Hopkins University, priority 2008, dated 2013)

Assays:
[1] = tested on: chloroquine-sensitive P. falciparum (NF54); assay: in vitro antimalarial activity, [3H]hypoxanthine incorporation; assay type: cell-based; conditions: Plasmodium falciparum
Description: To determine the antimalarial effect of the disclosed trioxane sulfur dimer compounds of Formula I, screening assays may be performed against chloroquine-sensitive P. falciparum (NF54). Using the methods described below, the IC50 values of these compounds may be determined.
Antimalarial activity may be determined by measuring the incorporation of [^3H]hypoxanthine by the methods of DesJardins and Milhous with the following modifications, see Desjardins, R. E.; Canfield, C. J.; Haynes, J. D.; Chulay, J. D., Antimicrob. Agents Chemother., 16:710 (1979); Milhous, W. K.; Weatherly, N. F.; Bowdre, J. H.; Desjardins, R., Antimicrob. Agents Chemother., 27:525 (1985). […]
Stock solutions (approximately 2.5 mg/mL of HPLC-purified or recrystallized test compound) are prepared in dimethyl sulfoxide (DMSO; Sigma-Aldrich #27,043-1). […] Cells may be harvested (Brandel MB-48R) onto GF-C glass filters (Brandel), and the filters washed five times with 3 mL water per sample spot, dried under a heat lamp, and counted (Beckman Model LS-6500) in scintillation cocktail (ICN Cytoscint).
Decays per minute (dpm) values may be downloaded and analyzed (Power Macintosh 7200/90; Microsoft Excel 5.0), to yield the mean and standard deviation at each drug concentration. […]

[2] = tested on: P. vivax and P. falciparum; conditions: 2099 cases of malaria (P. vivax and P. falciparum about 3:1), different dosage forms; cited from earlier work
P388 leukemia = conditions: NCI Report on NSC 369397, tested on 25 Oct. 1983; cited from earlier work
[3] = tested on: human HeLa cervical cancer cells; conditions: human HeLa cervical cancer cells in vitro; cited from earlier work

SMILES | IC50 [1] [nM] | clinical outcome [2] | activity against P388 leukemia (P388 leukemia) | IC50 [3] [nM]
C[C@@H]1CC[C@H]2[C@@H](C)C(=O)O[C@@H]3O[C@]4(C)CC[C@@H]1[C@]32OO4 [artemisinin] | 7.7 | clinical cure of all patients | inactive | 
C[C@@H]1CC[C@H]2[C@@H](C)C(O)O[C@@H]3O[C@]4(C)CC[C@@H]1[C@]32OO4 (stereo partly shown) [dihydroartemisinin] |  |  |  | 5000 to 10000
